# According to publication PMC6627486, “Ipomoeassin F Binds Sec61α to Inhibit Protein Translocation” (Journal of the American Chemical Society, 2019):
# Assays:
# [1] = tested on: secNLuc-ATZ secretion in U2-OS cells; test: U2-OS secNLuc-ATZ secretion assay; type: cell-based; details: Homo sapiens, U2OS, 24 h, read-out: secNLuc-ATZ secretion inhibition EC50
# Procedure: The secNLuc-ATZ assay has been described elsewhere.18 Briefly, U2-OS cells stably expressing secNLuc-ATZ were cultured in McCoy’s 5A supplemented with 10% bovine growth serum (Hyclone SH30540.03), 50 units/mL penicillin, and 50 µg/mL streptomycin and plated into 1536-well black, clear-bottom treatment plates (Aurora Microplates #ABI121000A) at 1200 cells/well in 5 µL volume using a Multidrop Combi dispenser (ThermoFisher). Cells were returned to 37 °C for 1 h to adhere and compound or vehicle control was added to wells using a 1536-well pin-tool transfer device (Wako Automation, San Diego). Cells were incubated for 24 h and secNLuc-ATZ-containing media was transferred using an ATS-100 acoustic dispenser (EDC Biosystems, Fremont, CA) from the treatment plate to a white, solid-bottom 1536-well recipient plate (Greiner Bio One #789175-F) containing 3 µL/well of 1X PBS. […]
# Cells were incubated at 37 °C for 24 h and secreted luciferase was detected by adding 1 µL of coelenterazine substrate to each well using a BioRAPTR FRD workstation. […]
# Luminescence was measured using a ViewLux microplate imager equipped with clear filters.
# For cell viability assays, cells were cultured, plated, and treated with test compounds as outlined for the secretion assays. 48 h after treatment, viability was assessed using a CellTiter-Glo assay by adding 3
# [2] = tested on: GLuc secretion in SH-SY5Y cells; test: SH-SY5Y GLuc secretion assay; type: cell-based; details: Homo sapiens, read-out: GLuc secretion inhibition EC50
# MDA-MB-231 cells = test: Live cell imaging with fluorescent probe 12; type: cell-based, human; details: 30 min preincubation, 100-fold excess competitor
# Procedure: MDA-MB-231 cells were seeded on fibronectin-coated coverslips at 70% confluency in a 48-well plate and cultured at 37 °C and 5% CO2. After 24 h, culture medium was replaced with fresh medium containing a 20 µM competitor or an equal volume of DMSO vehicle for 30 min at 37 °C and 5% CO2, followed by addition of 0.2 µM (final concentration) fluorescent probe 12. After 1 h incubation at 37 °C and 5% CO2, the coverslips were mounted onto a glass slide with a mounting medium with or without 0.5 µg/ml DAPI.
# The fluorescent images were acquired with a confocal microscope (Leica TCS SP5) using 405 nm excitation and 562 nm excitation. For the ER co-localization studies, 1 uM ER-Tracker™ Blue-White DPX was added to the medium after 1 h incubation with probe 12. After 5 min incubation, the coverslips were mounted onto a glass slide and the images were acquired as described above.
# CT7 photo-affinity labeling and click chemistry were done as previously described.14 Briefly, SRMs (sheep rough microsomes, isolated as described in reference15) containing 100 nM Sec61 were treated with 10 µM ipomoeassin F/mycolactone or 1% DMSO for 30 min at 0°C, followed by incubation with 100 nM CT7 for 10 min RT. Samples were then photolyzed for 10 min and crosslinked proteins were detected by click chemistry, SDS-PAGE, and in-gel fluorescent scanning (Typhoon Trio, GE Healthcare). […]
# [3] = tested on: several cancer-derived cell lines; parameters: method as in PMID 19697385; details: cited from earlier work
smiles,measurement,setting,value
C/C=C(\C)C(=O)O[C@@H]1[C@@H](O)[C@@H]2O[C@H]3[C@H](O[C@@H](CCCCC)CCCCCCC(=O)CCC(=O)OC[C@@H](O2)[C@H]1OC(=O)/C=C/c1ccccc1)O[C@H](C)[C@H](OC(C)=O)[C@@H]3O [ipomoeassin F],EC50,[1],~5 nM
same,EC50,[2],~120 nM
same,effect of competitor on fluorescence signal of 12,MDA-MB-231 cells,almost completely abolished
same,IC50 values against several cancer-derived cell lines,[3],single-digit nanomolar
